Test results taken from patent US20230150951A1, “2,5- OR 2,6-DISUBSTITUTED HYDROQUINONE DERIVATIVES WITH AT LEAST ONE CARBOXY, SULFO OR AMIDO GROUP USEFUL AS MEDICAMENTS” (OM PHARMA SA, priority 2020, published 2023).

What was measured:
VEGFR-2 = target: T1, VEGFR-2 (Homo sapiens, UniProt P35968); test: VEGF-165 induced phosphorylation of VEGF-Receptor on HUVEC; assay type: cell-based; conditions: HUVEC preincubated 60 min, VEGF165 25 ng/mL 2 min; read-out: VEGFR-Phosphorylation inhibition IC50
T1 construct: endogenous in cells; host or cells: primary HUVEC
Protocol: Cell culture: Primary human umbilical vein endothelial cells (HUVECs) were routinely cultured in 0.1% gelatin pre-coated flasks or dishes, up to passage 6. […]
Rabbit primary antibodies for VEGFR-2, p-Tyr1175 were acquired from Cell Signaling Technology (Leiden, The Netherlands). Phospho-VEGFR-2 (Tyr1175) Sandwich ELISA Kit was from Cell Signaling Technology.
[…] Western blot analysis was performed using anti-phospho-VEGFR-2 antibody and total VEGFR-2 was used as a loading control after membrane stripping.
Inhibition of VEGFR-2-phosphorylation results are expressed as IC50 in microM [μM] versus VEGF-treated HUVECs control without inhibitory compound.

Human neutrophils [1] = test: Neutrophil adhesion under static conditions; assay type: cell-based; conditions: fMLP-stimulated adhesion to fibrinogen; method: 40 μM and 80 μM, concentration of the value not stated
Protocol: Human neutrophils obtained from buffy coats of healthy donors were suspended at 3×10^6/ml in adhesion buffer (PBS containing 1 mM CaCl2)/MgCl2 and 10% FCS, pH 7.2). Neutrophils were preincubated for 30 min at 37° C. with 40 μM and 80 μM of the compounds.
Adhesion assays were performed on 18-well glass slides coated for 18 h at 4° C. with human fibrinogen (20 μg/well in endotoxin-free PBS); 20 μl of cell suspension were added to each well and stimulated for 1 min at 37° C. with 5 μl of fMLP 1 nM final concentration. After washing, adherent cells were fixed in glutaraldehyde 1.5% in PBS and counted by computer-assisted enumeration. Statistical analysis was performed by calculating mean and standard deviation (SD); significance was calculated by unpaired t-test. All statistical analyses were performed using GraphPad Prism 6 (GraphPad Software).

[2] = tested on: STZ-induced diabetes model; test: STZ-induced diabetic nephropathy, kidney disease and retinopathy model (28 days treatment)
Protocol: A total of 70 female CD-1 mice aged 5-7 weeks weighing approximately 25-30 g were used for the study. These were purchased from Charles River, UK and had 7 days acclimatization period. Animals were housed in IVC cages (up to 5 per cage) with individual mice identified by tail mark. All animals were allowed free access to a standard certified commercial diet and sanitised water during the study. The holding room was maintained under standard conditions: 18-24° C., 55-70% humidity and a 12 h light/dark cycle.
Mice were starved for 6 hours prior to injection. One week after completion of induction glucose levels were monitored and mice with levels less than 15 mml/L (280 mg/gL) were removed from the study as they had not developed the ideal severity of diabetes. Glucose levels were be monitored weekly and 5 weeks after STZ induction biochemical assessment of renal injury was carried out by measuring urine albumin and creatinine levels and confirming they were within the desired range. After successful completion of this stage animals were assigned to treatment groups.
Treatment continued for 4 weeks (28 days) with weekly measurement of blood glucose and urine albumin/creatinine. The study schedule is detailed below looking at weekly (week 5 to 9) blood glucose levels, urine albumin creatinie ratios, and terminal (week 9) blood chemistry and cytokines, kidney histology and eye-retinal leakage.
Urine Albumin: Creatinine (ALB: CRE): Urine was collected weekly and pooled for each treatment group.
ELISAs: At the end of the treatment period blood was collected and processed to serum. Serum levels of CRP, TGF-β, IL-6 and TNF-α were quantified using commercially available ELISA kits, results are shown in Table 56.

FGF-1 = target: T2, FGF-1 (Homo sapiens, UniProt P05230); test: FGF-1 induced sprouting of HUVEC, spheroid-based cellular angiogenesis assay; assay type: cell-based; conditions: FGF-1 25 ng/mL preincubated with compound, 24 h
T2 construct: purchased Peprotech 100-17A
Protocol: (§1) Aim of this in vitro method is to assess compounds effects on FGF-2, FGF-1, or VEGF-A induced sprouting of human umbilical vein endothelial cells (HUVEC) in the spheroid-based cellular angiogenesis assay. Before adding the growth factors to the cells, they were preincubated with the compound. Sunitinib was tested as a control (without preincubation).
(§2) IC50 values determined for the tested compounds are expressed in microM [μM] and the values for the inhibition of FGF-1, FGF2 and VEGF-A induced growth (sprouting) are listed after each compound in the examples after chemical characterization.
(§3) Sprouting test was performed on the compounds dissolved in DMSO to reach 100-fold concentrated stock solutions and dissolved in culture media. Sunitinib as reference compound was provided by ProQinase GmbH. Growth factors were purchased from rhFGF-basic (FGF-2), Peprotech, New Jersey, USA, #100-18C, Lot #0415571; rhFGF-acidic (FGF-1), Peprotech, New Jersey, USA, #100-17A, Lot #031207; hVEGF-A165 (ProQinase GmbH, Freiburg, Germany; 05.02.2010) were used for stimulation of HUVEC cells growth.
(§4) Test system: Endothelial cells from human umbilical vein (HUVEC) from pooled donors were stored frozen with 70% medium, 20% FCS, 10% DMSO at about 1×10^6 cells/ampoule. HUVEC cells, primary human umbilical vein endothelial cells (PromoCell, Heidelberg, Germany), were used after passage 3 to 4. Morphology of the cells are adherent, cobblestone-like growing as monolayer and were cultured in endothelial cell growth and basal medium (ECGM/ECBM, PromoCell). The subculture was split 1:3; every 3-5 days, seed out at ca. 1×10^4 cells/cm^2 and incubated at 37° C. with 5% CO2 with a doubling time 24-48 hours
(§5) Dilution of test compounds: 100× concentrated solutions (concerning to the final assay concentrations) of each test compound were prepared with the appropriate solvent (in DMSO or in water). These 100×compound solutions were further diluted in endothelial cell growth and basal medium (ECBM) 1:7.5 to get a 13.33× concentrated solution. 75 μl of the 13.33×solution was subsequently mixed with 25 μl of 40× concentrated stimulus (solved in ECBM), resulting in a 10×concentrated stimulus/compound mixture. This mixture (100 μl) was incubated for 30 min at 37° C. and then added to 900 μl gel, containing the HUVEC spheroids (resulting in the final assay concentration).
(§6) Test method: the experiments were pursued in modification of the originally published protocol (Korff and Augustin: J Cell Sci 112: 3249-58, 1999). In brief, spheroids were prepared as described (Korff and Augustin: J Cell Biol 143: 1341-52, 1998) by pipetting 400 HUVEC in a hanging drop on plastic dishes to allow overnight spheroid aggregation. 50 HUVEC spheroids were then seeded in 0.9 ml of a collagen gel and pipetted into individual wells of a 24 well plate to allow polymerization. The test compounds were preincubated with the growth factors (FGF-1, FGF-2 or VEGF-A final concentration 25 ng/mL) in a 10-fold concentrated solution and subsequently, 100 μl of this solution was added on top of the polymerized gel. All compounds were diluted in solvent (DMSO or water) as 100×stocks first (which means 100×stocks of each final assay concentration were prepared in solvent). Subsequently, these stocks were further diluted in medium (resulting in the 13.33×stocks of each final assay concentration) with final concentrations tested: 100, 50, 25, 12.5, 6.25, 3.13 and 1.56×10^−6 M). Plates were incubated at 37° C. for 24 hours and fixed by adding 4% PFA (Roth, Karlsruhe, Germany).
(§7) Quantification of growth factor inhibition: sprouting intensity of HUVEC spheroids treated with the growth factor and the inhibitors were quantitated by an image analysis system determining the cumulative sprout length per spheroid (CSL).

Human neutrophils [3] = test: Inhibition of ROS production in human neutrophils (isoluminol chemiluminescence); assay type: cell-based; conditions: fMLP+TNF-α stimulated PMN; for inhibition at 0.3 µM / IC50: Homo sapiens, Neutrophil
Source text: NADPH oxidase, located in the plasma membrane and in the membranes of specific granules, produces superoxide anions from which other ROS, such as hydrogen peroxide, singlet oxygen, hypochlorite, and active hydroxyl radicals. ROS are released into the surrounding medium or into a membrane-enclosed subcellular organelle. One quick and sensitive method for measuring the generation of these metabolites is chemiluminescence (CL). Isoluminol amplified CL technique, is very sensitive and widely used to study respiratory burst (mainly extracellular production of ROS) induced in neutrophils.
Human neutrophils were isolated from buffy coats which obtained from healthy donors. The isolated neutrophils (3×10^6/ml) were suspended in Hanks' Balanced Salt Solution (HBSS) with Calcium and Magnesium. Neutrophils were pre-incubated with the compounds at different concentrations (0.1, 0.3, 1, 3 and 10 μM) for 30 min at 37° C. The black 96-well cell culture plates were coated with human fibrinogen (0.25 mg/ml in PBS), and incubated overnight at 4° C. or 2 hr at 37° C. Then the plates were washed with endotoxin-free PBS. The neutrophils were incubated (priming) with TNF-α (20 ng/ml) for 10 minutes at 37° C. Thereupon the 75 μl of cell suspension and 75 μl (Isoluminol+HRP solution) were added to each well. The chemiluminescence was recorded (every 25 sec for 250 sec) after fMLP (1 μM) activation using a Multilabel Reader victor3 (Perkin Elmer, USA). Background values, defined as the mean chemiluminescent values of isoluminol diluted in HBSS, were subtracted from all readings (CPS, count per second). The assays were done in duplicate or triplicate.

FGF-2 = target: T3, FGF-2 (Homo sapiens, UniProt P09038); test: FGF-2 induced sprouting of HUVEC, spheroid-based cellular angiogenesis assay; assay type: cell-based; conditions: FGF-2 25 ng/mL preincubated with compound, 24 h
T3 construct: purchased Peprotech 100-18C
Protocol: as §1, §2, §3, §4, §5, §6, §7

[4] = day 28 of treatment (week 9), 15 mg/kg IV, Captopril 50 mg/kg PO
[5] = day 28 of treatment (week 9), serum, 15 mg/kg IV, Captopril 50 mg/kg PO

T2 sequence (P05230 whole entry): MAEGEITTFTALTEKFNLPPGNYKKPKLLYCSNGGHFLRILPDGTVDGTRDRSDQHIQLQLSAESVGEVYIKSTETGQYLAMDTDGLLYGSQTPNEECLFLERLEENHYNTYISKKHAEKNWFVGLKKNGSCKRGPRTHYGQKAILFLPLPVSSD
T1 sequence (P35968 20-1356): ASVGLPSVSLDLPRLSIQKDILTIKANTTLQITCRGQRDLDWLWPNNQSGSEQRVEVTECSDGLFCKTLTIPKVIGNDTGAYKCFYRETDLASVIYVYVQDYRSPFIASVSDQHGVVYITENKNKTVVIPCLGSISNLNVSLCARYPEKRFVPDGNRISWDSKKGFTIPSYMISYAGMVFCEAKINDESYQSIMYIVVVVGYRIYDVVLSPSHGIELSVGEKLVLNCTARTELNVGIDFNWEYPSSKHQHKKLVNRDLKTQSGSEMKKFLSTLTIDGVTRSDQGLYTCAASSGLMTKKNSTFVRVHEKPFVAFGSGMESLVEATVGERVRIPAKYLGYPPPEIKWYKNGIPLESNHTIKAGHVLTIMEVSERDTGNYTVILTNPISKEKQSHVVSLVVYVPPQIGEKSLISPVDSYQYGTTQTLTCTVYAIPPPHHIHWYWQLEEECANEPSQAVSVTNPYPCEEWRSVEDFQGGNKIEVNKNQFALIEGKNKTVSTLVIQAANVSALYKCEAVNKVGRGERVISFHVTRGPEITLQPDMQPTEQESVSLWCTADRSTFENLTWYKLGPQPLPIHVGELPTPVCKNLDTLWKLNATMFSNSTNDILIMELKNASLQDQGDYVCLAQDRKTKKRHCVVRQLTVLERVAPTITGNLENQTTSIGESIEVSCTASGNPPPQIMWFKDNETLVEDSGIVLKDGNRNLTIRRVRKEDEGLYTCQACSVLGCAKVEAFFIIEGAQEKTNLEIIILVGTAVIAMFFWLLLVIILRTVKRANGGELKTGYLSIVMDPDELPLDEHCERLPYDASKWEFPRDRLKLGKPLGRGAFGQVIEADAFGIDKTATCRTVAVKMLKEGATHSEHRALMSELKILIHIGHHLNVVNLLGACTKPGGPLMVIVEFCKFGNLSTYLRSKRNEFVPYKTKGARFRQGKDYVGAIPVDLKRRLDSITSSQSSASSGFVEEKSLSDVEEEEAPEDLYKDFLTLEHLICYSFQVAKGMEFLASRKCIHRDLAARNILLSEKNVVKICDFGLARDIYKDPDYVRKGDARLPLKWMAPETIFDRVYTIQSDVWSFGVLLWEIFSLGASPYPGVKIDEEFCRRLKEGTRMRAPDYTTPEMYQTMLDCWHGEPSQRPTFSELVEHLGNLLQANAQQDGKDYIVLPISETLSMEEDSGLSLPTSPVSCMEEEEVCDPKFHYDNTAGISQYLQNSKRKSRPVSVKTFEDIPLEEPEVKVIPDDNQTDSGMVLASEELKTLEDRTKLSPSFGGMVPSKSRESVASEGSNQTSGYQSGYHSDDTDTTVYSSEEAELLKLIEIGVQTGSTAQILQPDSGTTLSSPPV
T3 sequence (P09038 134-288): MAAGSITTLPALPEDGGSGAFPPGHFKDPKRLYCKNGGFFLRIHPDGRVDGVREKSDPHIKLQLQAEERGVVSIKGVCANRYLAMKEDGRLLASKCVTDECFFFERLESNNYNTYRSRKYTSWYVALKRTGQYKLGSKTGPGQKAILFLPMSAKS

SMILES	IC50 (VEGFR-2) [µM]	Neutrophil adhesion inhibition (Human neutrophils [1]) [%]	IC50 (FGF-1) [µM]	inhibition at 0.3 µM (Human neutrophils [3]; 0.3 μM) [%]	IC50 (FGF-2) [µM]	other results
CCOC(=O)c1cc(O)c(CN(Cc2cc(O)c(C(=O)OCC)cc2O)Cc2cc(O)c(C(=O)OCC)cc2O)cc1O [IIIc-061a-E3]	0.34	10.4	–	–	–	–
C[C@H](CS)C(=O)N1CCC[C@H]1C(=O)O [Captopril, reference compound]	–	–	–	–	–	Serum CRP ([2]; 28 days of treatment, vs vehicle induced controls): significantly reduced; Mean day 0 blood glucose Concentration (mmol/L) (SD) ([2]; day 0, 15 mg/kg IV, Captopril 50 mg/kg PO): 23.7 (6.9) mmol/L; Mean day 28 blood glucose Concentration (mmol/L) (SD) ([2]; day 28, 15 mg/kg IV, Captopril 50 mg/kg PO): 32.2 (2.3) mmol/L; Blood BUN [2, 4]: 28.5 ± 7.6; Disease Score (kidney, H&E) [2, 4]: 6 ± 1; Eye area (retinal flatmount area covered by vasculature) [2, 4]: 11.8 ± 1.4; Trichrome staining (Kidney fibrosis) [2, 4]: 1.98 ± 0.47; Blood CRP [2, 5]: 4534 ± 821; Blood IL-6 [2, 5]: 125.56 ± 15.75; Blood TGF-beta [2, 5]: 14.55 ± 2.86; Blood TNF-alpha [2, 5]: 415 ± 51.7; Urine albumine creatinine ratio (ALB:CRE) ([2]; day 28 of treatment (week 9), urine pooled per group, 15 mg/kg IV, Captopril 50 mg/kg PO): 24.40
CCOC(=O)c1cc(NC(=O)c2cc(OC(C)=O)c(C(=O)OCC)cc2OC(C)=O)cc(NC(=O)c2cc(OC(C)=O)c(C(=O)OCC)cc2OC(C)=O)c1 [Ib-010a-E3-A4, ethyl 3,5-bis(2,5-diacetoxy-4-ethoxycarbonylbenzoylamino)benzoate]	0.54	96	≥ 200	54.9	–	IC50 (Human neutrophils [3]): 1.49 µM
O=C(O)c1cccc(NC(=O)c2cc(O)cc(C(=O)O)c2O)c1 [IIa-002a, 3-(3-carboxyphenylaminocarbonyl)-2,5-dihydroxybenzoic acid]	–	17.39	19	43.3	131	IC50 (Human neutrophils [3]): 0.299 µM
CCOC(=O)c1cc(O)c(-c2nc3c(C(=O)OC)cccc3[nH]2)cc1O [Id-030a-E2]	0.33	43	115	–	–	PMN ROS inhibition at 0.3 μM (Human neutrophils [3]; 0.3 μM): 0%
CCOC(=O)Cc1cc(O)c(C(=O)Nc2ccccc2-c2nnn[nH]2)cc1O [IIIa-001aTz-E1, ethyl (4-(2-(1H-tetrazol-5-yl)phenylaminocarbonyl)-2,5-dihydroxyphenyl)acetate]	0.32	91.76	≥ 200	70	–	–
O=C(O)c1cc(O)c(CNCc2cc(O)c(C(=O)O)cc2O)cc1O [IIIc-056a, Bis(4-carboxy-2,5-dihydroxyphenylmethyl)amine]	–	35	–	90.1	35	–
O=C(O)c1cc(O)c(C(=O)Nc2cccc(S(=O)(=O)O)c2)cc1O [Ia-002c, 2,5-dihydroxy-4-(3-sulfophenylaminocarbonyl)benzoic acid]	≥ 100	1.87	14	38.9	–	IC50 (Human neutrophils [3]): 0.405 µM
O=C(O)c1cc(O)cc(C(=O)Nc2ccccc2S(=O)(=O)O)c1O [IIa-001c, 2,5-dihydroxy-3-(2-sulfophenylaminocarbonyl)benzoic acid]	–	43.53	–	72.6	71	–
O=C(O)c1cc(NC(=O)c2cc(O)cc(C(=O)O)c2O)cc(C(=O)O)c1 [IIa-015a, 5-(3-carboxy-2,5-dihydroxybenzamido)isophthalic acid]	–	–	–	–	125	–
O=C(O)c1ccc(NC(=O)c2cc(O)c(C(=O)O)cc2O)cc1 [Ia-003a, 4-(4-carboxyphenyl-aminocarbonyl)-2,5-dihydroxybenzoic acid]	–	39.1	12	44.4	34	IC50 (Human neutrophils [3]): 0.414 µM
O=C(O)c1cc(O)c(C(=O)Nc2ccc(S(=O)(=O)O)cc2)cc1O [Ia-003c, 2,5-dihydroxy-4-(4-sulfophenylaminocarbonyl)benzoic acid]	0.4	–	35	–	–	–
O=C(O)Cc1ccc(NC(=O)c2cc(O)c(C(=O)O)cc2O)cc1 [Ia-032a, 4-(4-(carboxymethyl)phenylaminocarbonyl)-2,5-dihydroxybenzoic acid]	≥ 100	–	–	–	91	–
CCOC(=O)Cc1ccccc1NC(=O)c1cc(O)cc(C(=O)OCC)c1O [IIa-034a-E2, ethyl 3-(2-(ethoxycarbonylmethyl)phenylaminocarbonyl)-2,5-dihydroxybenzoate]	–	11.86	–	68.7	164	–
CCOC(=O)Cc1cc(O)c(C(=O)Nc2cc(NC(=O)c3cc(O)c(CC(=O)OCC)cc3O)cc(C(=O)OC)c2)cc1O [IIIb-010a-E3, methyl 3,5-bis(4-(ethoxycarbonylmethyl)-2,5-dihydroxybenzamido)benzoate]	0.65	0	–	–	–	–
